The text below walks through data of patent US4946964A, “Photographic compounds” (Polaroid Corporation, priority 1987, dated 1990).

A short description of series [1]: release kinetics: t1/2 for cleavage with release of the PHOTO moiety in alkaline solution. In kind it is physicochemical. Particulars: 1×10^-4 molar, 30% acetonitrile/0.25N aqueous potassium hydroxide, 22°+0.1° C., 100 µM. The source says: The rate of release of the PHOTO moiety is dependent upon a number of factors. […] The release rate is also dependent upon the hydroxyl ion concentration of the alkaline medium. […] The rate of release is also temperature dependent, that is, the rate increases as the temperature at which processing of the film unit is effected increases. Thus, where PHOTO is a photographic reagent residue for example, the compounds which are utilized according to the invention can provide more uniform sensitometry for the film units of the invention over a wide temperature range of processing. In other words, the sensitometry of such film units can be less temperature dependent than would otherwise be the case.
The release kinetics of the compounds of the invention vary over a wide range. The t1/2 times in solution, i.e., the time required for one-half of the material to undergo cleavage with release of the PHOTO moiety, for some of the compounds illustrated above are shown in Table I. The values were obtained using 1×10^-4 molar concentrations in 30% acetonitrile/0.25N aqueous potassium hydroxide solution at a temperature of 22°+0.1° C.

Series [2] in a line: Arrhenius activation energy (Ea) of release of the PHOTO moiety. Type of series: physicochemical. Particulars: log of observed rate constant vs 1/T (° K.). Here is the method:
The rate at which the release reaction increases with temperature is a function of the activation energy. For example, for an increase in temperature from 20° C. to 30° C., it hs been calculated that the reaction rate will increase by a factor of 2 when Ea is 12.2, by a factor of about 3 when Ea is 19.3, by a factor of about 4 when Ea is 24.4 and by a factor of about 5 when Ea is 28.3. […] Typically, for such release reactions with other compounds, when the room temperature release rate is relatively fast, the activation energy tends to be about 10. Accordingly, it is possible to select, according to the invention, for a particular photographic system a compound which has a desired release rate at room temperature, a much slower release rate at lower temperatures and a much higher release rate at higher temperatures.
The Arrhenius activation energy (Ea) was calculated by plotting the log of the observed rate constant vs 1/T (° K.) for each compound.

`ON=C(CSc1nnnn1-c1ccc(O)cc1)CSc1nnnn1-c1ccc(O)cc1` [Compound I] returned a t1/2 in series [1] of 51.1 s. Also, in series [2], the “Arrhenius activation energy (Ea)” value worked out at 21.8 kcal/mol. Molecule `COc1ccc(C(CSc2nnnn2-c2ccccc2)=NO)cc1` [X] displayed a t1/2 in series [1] of 4.3 s. In addition, the “Arrhenius activation energy (Ea)” value in series [2] worked out at 21.9 kcal/mol. As for `NC(CSc1nnnn1-c1ccccc1)=NO` [XIII], in series [1], the t1/2 is 546.0 s. Same read-out and setting: to `Cc1ccc(S(=O)(=O)NN=C(CSc2nnnn2-c2ccccc2)c2ccccc2)cc1` [XII] belongs 165.0 s; to `ON=C(CSc1nnnn1-c1ccccc1)CSc1nnnn1-c1ccccc1` [III], 8.9 s. The molecule `CC(CSc1nnnn1-c1ccc(O)cc1)=NO` [V] returned a t1/2 in series [1] of 40.5 s.

Turning to `CC(CSc1nnnn1-c1ccc(C(C)=NO)cc1)=NO` [VI], the t1/2 in series [1] stood at 28.9 s.

The molecule `CS(=O)(=O)Nc1ccc(C(CSc2nnnn2-c2ccccc2)=NO)cc1` [XI] displayed a t1/2 in series [1] of 7.6 s.

The molecule `ON=C(CSc1nnnn1-c1ccccc1)c1ccccc1` [VII] registered a t1/2 in series [1] of 4 to 6 s. With `ON=CCSc1nnnn1-c1ccccc1` [VIII], the values for the t1/2 in series [1] and in series [1] (syn isomer) were 49.1 s and 1020.0 s, respectively.

Molecule `CC(CSc1nnnn1-c1ccccc1)=NO` [IX] gave a t1/2 in series [1] of 22.5 s. Moreover, in series [2], the “Arrhenius activation energy (Ea)” value stood at 26.5 kcal/mol.
